Key:
Assay in all cases: Test C postemergence
Assay type in all cases: in vivo
Conditions in all cases: scale 0 to 100, 0 no effect, 100 complete control
[1] = system: Galium (catchweed bedstraw, Galium aparine)
Method in brief: (§1)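 Visual rating, 0–100 scale (0 = no effect, 100 = complete control) versus controls, 13–15 d after treatment. Compounds in non-phytotoxic solvent plus surfactant; applied preemergence to seeds in loam/sand soil or postemergence to 1- to 4-leaf plants (2–18 cm) in peat/vermiculite medium; greenhouse-held.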

Kochia (Kochia scoparia) = system: Kochia (Kochia scoparia)
Method in brief: as §1

[2] = system: barnyardgrass (Echinochloa crus-galli)
Method in brief: as §1

[3] = system: blackgrass (Alopecurus myosuroides)
Method in brief: as §1

[4] = system: chickweed (common chickweed, Stellaria media)
Method in brief: as §1

[5] = system: crabgrass, large (large crabgrass, Digitaria sanguinalis)
Method in brief: as §1

[6] = system: foxtail, giant (giant foxtail, Setaria faberii)
Method in brief: as §1

[7] = system: lambsquarters (Chenopodium album)
Method in brief: as §1

[8] = system: morningglory (Ipomoea coccinea)
Method in brief: as §1

[9] = system: nutsedge, yellow (yellow nutsedge, Cyperus esculentus)
Method in brief: as §1

[10] = system: oat, wild (wild oat, Avena fatua)
Method in brief: as §1

[11] = system: oilseed rape (Brassica napus)
Method in brief: as §1

[12] = system: pigweed (Amaranthus retroflexus)
Method in brief: as §1

[13] = system: ryegrass, Italian (Italian ryegrass, Lolium multiflorum)
Method in brief: as §1

soybean (Glycine max) = system: soybean (Glycine max)
Method in brief: as §1

[14] = system: velvetleaf (Abutilon theophrasti)
Method in brief: as §1

[15] = system: waterhemp (common waterhemp, Amaranthus rudis)
Method in brief: as §1

[16] = system: wheat (winter wheat, Triticum aestivum)
Method in brief: as §1

For O=C1NCC(c2ccc3c(c2)OC(F)(F)O3)C1C(=O)Nc1cccc(F)c1F (stereo not drawn) [Compound 635], the “Plant response rating, Galium” value ([1]; 31 g ai/ha) was 50, the “Plant response rating, Galium” value ([1]; 62 g ai/ha) was 50 and the “Plant response rating, Galium” value ([1]; 125 g ai/ha) was 60. For the same compound, the “Plant response rating, Galium” value ([1]; 250 g ai/ha) was 55, the “Plant response rating, Kochia” value (Kochia (Kochia scoparia); 31 g ai/ha) was 40 and the “Plant response rating, Kochia” value (Kochia (Kochia scoparia); 62 g ai/ha) was 20. For the same compound, the “Plant response rating, Kochia” value (Kochia (Kochia scoparia); 125 g ai/ha) was 50, the “Plant response rating, Kochia” value (Kochia (Kochia scoparia); 250 g ai/ha) was 60 and the “Plant response rating, Barnyardgrass” value ([2]; 31 g ai/ha) was 0. The “Plant response rating, Barnyardgrass” value ([2]; 62 g ai/ha) was 10, the “Plant response rating, Barnyardgrass” value ([2]; 125 g ai/ha) was 65 and the “Plant response rating, Barnyardgrass” value ([2]; 250 g ai/ha) was 65. The “Plant response rating, Blackgrass” value ([3]; 31 g ai/ha) was 0, the “Plant response rating, Blackgrass” value ([3]; 62 g ai/ha) was 0 and the “Plant response rating, Blackgrass” value ([3]; 125 g ai/ha) was 5. The “Plant response rating, Blackgrass” value ([3]; 250 g ai/ha) was 40, the “Plant response rating, Chickweed” value ([4]; 31 g ai/ha) was 80 and the “Plant response rating, Chickweed” value ([4]; 62 g ai/ha) was 85. The “Plant response rating, Chickweed” value ([4]; 125 g ai/ha) was 85, the “Plant response rating, Chickweed” value ([4]; 250 g ai/ha) was 90 and the “Plant response rating, Crabgrass, Large” value ([5]; 31 g ai/ha) was 20. For the same compound, the “Plant response rating, Crabgrass, Large” value ([5]; 62 g ai/ha) was 60, the “Plant response rating, Crabgrass, Large” value ([5]; 125 g ai/ha) was 50 and the “Plant response rating, Crabgrass, Large” value ([5]; 250 g ai/ha) was 70. For the same compound, the “Plant response rating, Foxtail, Giant” value ([6]; 31 g ai/ha) was 15, the “Plant response rating, Foxtail, Giant” value ([6]; 62 g ai/ha) was 30 and the “Plant response rating, Foxtail, Giant” value ([6]; 125 g ai/ha) was 50. For the same compound, the “Plant response rating, Foxtail, Giant” value ([6]; 250 g ai/ha) was 60, the “Plant response rating, Lambsquarters” value ([7]; 31 g ai/ha) was 75 and the “Plant response rating, Lambsquarters” value ([7]; 62 g ai/ha) was 80. The “Plant response rating, Lambsquarters” value ([7]; 125 g ai/ha) was 75, the “Plant response rating, Lambsquarters” value ([7]; 250 g ai/ha) was 85 and the “Plant response rating, Morningglory” value ([8]; 31 g ai/ha) was 25. The “Plant response rating, Morningglory” value ([8]; 62 g ai/ha) was 40, the “Plant response rating, Morningglory” value ([8]; 125 g ai/ha) was 45 and the “Plant response rating, Morningglory” value ([8]; 250 g ai/ha) was 45. The “Plant response rating, Nutsedge, Yellow” value ([9]; 31 g ai/ha) was 0, the “Plant response rating, Nutsedge, Yellow” value ([9]; 62 g ai/ha) was 0 and the “Plant response rating, Nutsedge, Yellow” value ([9]; 125 g ai/ha) was 0. For the same compound, the “Plant response rating, Nutsedge, Yellow” value ([9]; 250 g ai/ha) was 0, the “Plant response rating, Oat, Wild” value ([10]; 31 g ai/ha) was 0 and the “Plant response rating, Oat, Wild” value ([10]; 62 g ai/ha) was 0. For the same compound, the “Plant response rating, Oat, Wild” value ([10]; 125 g ai/ha) was 0, the “Plant response rating, Oat, Wild” value ([10]; 250 g ai/ha) was 5 and the “Plant response rating, Oilseed Rape” value ([11]; 31 g ai/ha) was 50. The “Plant response rating, Oilseed Rape” value ([11]; 62 g ai/ha) was 45, the “Plant response rating, Oilseed Rape” value ([11]; 125 g ai/ha) was 10 and the “Plant response rating, Oilseed Rape” value ([11]; 250 g ai/ha) was 80. For the same compound, the “Plant response rating, Pigweed” value ([12]; 31 g ai/ha) was 65, the “Plant response rating, Pigweed” value ([12]; 62 g ai/ha) was 60 and the “Plant response rating, Pigweed” value ([12]; 125 g ai/ha) was 75. For the same compound, the “Plant response rating, Pigweed” value ([12]; 250 g ai/ha) was 75, the “Plant response rating, Ryegrass, Italian” value ([13]; 31 g ai/ha) was 0 and the “Plant response rating, Ryegrass, Italian” value ([13]; 62 g ai/ha) was 0. For the same compound, the “Plant response rating, Ryegrass, Italian” value ([13]; 125 g ai/ha) was 15, the “Plant response rating, Ryegrass, Italian” value ([13]; 250 g ai/ha) was 20 and the “Plant response rating, Soybean” value (soybean (Glycine max); 31 g ai/ha) was 0. For the same compound, the “Plant response rating, Soybean” value (soybean (Glycine max); 62 g ai/ha) was 0, the “Plant response rating, Soybean” value (soybean (Glycine max); 125 g ai/ha) was 5 and the “Plant response rating, Soybean” value (soybean (Glycine max); 250 g ai/ha) was 10. For the same compound, the “Plant response rating, Velvetleaf” value ([14]; 31 g ai/ha) was 0, the “Plant response rating, Velvetleaf” value ([14]; 62 g ai/ha) was 0 and the “Plant response rating, Velvetleaf” value ([14]; 125 g ai/ha) was 10. For the same compound, the “Plant response rating, Velvetleaf” value ([14]; 250 g ai/ha) was 30, the “Plant response rating, Waterhemp” value ([15]; 31 g ai/ha) was 35 and the “Plant response rating, Waterhemp” value ([15]; 62 g ai/ha) was 60. The “Plant response rating, Waterhemp” value ([15]; 125 g ai/ha) was 55, the “Plant response rating, Waterhemp” value ([15]; 250 g ai/ha) was 70 and the “Plant response rating, Wheat” value ([16]; 31 g ai/ha) was 0. The “Plant response rating, Wheat” value ([16]; 62 g ai/ha) was 0, the “Plant response rating, Wheat” value ([16]; 125 g ai/ha) was 0 and the “Plant response rating, Wheat” value ([16]; 250 g ai/ha) was 5.
